Test results reported in patent publication US20200131227A1, “POLYPEPTIDE WITH TUMOUR BINDING ACTIVITY” (RUPRECHT-KARLS-UNIVERSITÄT HEIDELBERG, priority 2017, published 2020).
Where a SMILES comes first, the peptide text is derived from it. Bridges are numbered along the chain shown (N, C = ends). The star is where a group is joined. DOTA = O=C(O)CN1CCN(CC(=O)O)CCN(CC(=O)*)CCN(CC(=O)O)CC1

Legend:
ITGαvβ3 = ITGαvβ3 (Homo sapiens, UniProt P05106+P06756); assay: Surface plasmon resonance assay (SPR), ITGαvβ3; type: binding
Protocol: (§1) Assessment of the binding affinity was performed on a BiaCore X100 (GE Healthcare). To avoid denaturation of the heterodimer during amide activation ITGαvβ6 and ITGαvβ3, respectively, were used as analytes and SFITGv6 was immobilized at its N-terminus on a C1 sensor Chip (BR-1005-35, GE Healthcare) using a manual amine coupling protocol. Briefly, after activation of the sensor chip surface with a solution of EDC 0.4 M/NHS 0.1 M for 5 min a 100 μM peptide dissolved in HBS-EP running buffer (0.1 M HEPES, 30 mM EDTA, 1.5 M NaCl, 0.5% surfactant P20, pH 7.2) was immobilized with a contact time of 30 sec until a loading level of 18 response units (RU) was obtained. […] The SPR-sensogram data were evaluated with the BiaCore evaluation software. The dissociation constant (KD) was determined by a 1:1 Langmuir model fit of the SPR-sensograms.
as §1, with “SFLAP3” for “peptide”, “to obtain” for “until”, “12” for “18”, “(RU).” for “(RU) was obtained.”, “SPR sensogram” for “SPR-sensogram”, “SPR sensograms.” for “SPR-sensograms.”

[1] = tested on: brain metastases derived from breast cancer and NSCLC; assay: Histochemical peptide staining of brain metastases; set-up: species or system human
Protocol: Staining with the biotinylated PEG(12)-SFITGv6 peptide was performed on acetone-fixed cryosections (5 μm) of tumor tissues after blocking of unspecific binding using the Avidin/Biotin Blocking Kit (SP-2001, Vector Laboratories). A stock solution of the lyophilized peptide was prepared by dilution in 5% aqueous DMSO. Slices were incubated overnight at 4° C. with 10^-5 M peptide concentration in antibody diluent (DAKO). Detection of bound peptide was carried out with the Vectastain Elite ABC Kit (PK-6100, Vector Laboratories) according to manufacturer's protocol. Peptide specificity was ensured by a scrambled (GRD) PEG(12)-SFITGv6 derivate, the somatostatin receptor ligand DOTATOC and negative controls (without peptide or primary antibody) Staining results were assessed by bright field microscopy (BX50) with the SC30 camera and the cell Sense software (all Olympus).

HNO399 cells = assay: In vitro binding on HNO399 cells; type: cell-based, human; details: Example 2, 10 min to 480 min (FIG. 16)
Protocol: For the assessment of the peptide binding capacity in vitro, 2.5-4×10^5 cells were seeded into 6-well plates and cultivated for 48 h. ^125I-labeled peptide resuspended in 1 mL serum-free medium was added and incubated for either 10 min or 60 min with or without different concentrations of unlabeled peptide (10^−4-10^−11 M). Afterwards, cell monolayers were washed three times with 1 mL phosphate-buffered saline (pH 7.4) to remove unbound peptide and the cells were harvested with 1.4 mL lysis buffer (0.3 M NaOH). […] For the efflux experiments the cells were incubated with ^177Lu-DOTA-labeled peptides for 60 min. Thereafter, radioactive medium was replaced by non-radioactive medium and cell monolayers were incubated for additional 60, 120, and 240 min and afterwards lysed as described earlier. […] Unspecifically bound peptide was removed from the surface by incubation with 1 M glycine-HCl solution (pH 2.2) for 10 min. The monolayer cell was rinsed with PBS and cells were lysed as described before. Radioactivity was determined in a y-counter and calculated as percentage of the applied dose per 1×10^6 cells. Experiments were performed three times, and three repetitions per independent experiment were acquired.

Chain of ITGαvβ3 (P06756 31-992 limits assumed): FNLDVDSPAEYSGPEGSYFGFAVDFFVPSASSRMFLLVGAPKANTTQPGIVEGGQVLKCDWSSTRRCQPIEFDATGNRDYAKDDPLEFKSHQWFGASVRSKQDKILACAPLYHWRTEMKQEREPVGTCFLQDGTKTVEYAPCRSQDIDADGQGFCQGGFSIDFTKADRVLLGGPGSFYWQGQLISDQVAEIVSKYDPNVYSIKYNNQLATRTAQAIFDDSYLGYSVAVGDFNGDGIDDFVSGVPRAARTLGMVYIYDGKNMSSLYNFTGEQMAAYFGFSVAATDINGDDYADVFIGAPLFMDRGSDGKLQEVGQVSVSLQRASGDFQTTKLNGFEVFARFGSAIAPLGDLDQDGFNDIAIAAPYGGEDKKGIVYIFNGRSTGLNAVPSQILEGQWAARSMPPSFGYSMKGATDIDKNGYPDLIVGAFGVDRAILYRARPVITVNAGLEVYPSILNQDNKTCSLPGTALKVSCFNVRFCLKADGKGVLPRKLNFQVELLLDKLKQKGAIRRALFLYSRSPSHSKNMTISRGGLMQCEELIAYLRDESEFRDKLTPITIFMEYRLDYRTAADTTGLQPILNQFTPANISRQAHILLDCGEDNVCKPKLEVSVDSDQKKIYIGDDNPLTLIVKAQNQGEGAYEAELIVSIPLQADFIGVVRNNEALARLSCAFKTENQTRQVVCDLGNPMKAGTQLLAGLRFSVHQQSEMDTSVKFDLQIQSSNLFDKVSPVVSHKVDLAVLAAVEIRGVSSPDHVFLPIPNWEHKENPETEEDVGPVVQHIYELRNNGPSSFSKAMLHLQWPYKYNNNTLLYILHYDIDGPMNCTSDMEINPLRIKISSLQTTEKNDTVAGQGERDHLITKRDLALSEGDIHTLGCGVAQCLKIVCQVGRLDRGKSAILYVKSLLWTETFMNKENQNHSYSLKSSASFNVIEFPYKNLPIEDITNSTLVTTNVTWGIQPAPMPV
Chain of ITGαvβ3 (P05106 27-718 limits assumed): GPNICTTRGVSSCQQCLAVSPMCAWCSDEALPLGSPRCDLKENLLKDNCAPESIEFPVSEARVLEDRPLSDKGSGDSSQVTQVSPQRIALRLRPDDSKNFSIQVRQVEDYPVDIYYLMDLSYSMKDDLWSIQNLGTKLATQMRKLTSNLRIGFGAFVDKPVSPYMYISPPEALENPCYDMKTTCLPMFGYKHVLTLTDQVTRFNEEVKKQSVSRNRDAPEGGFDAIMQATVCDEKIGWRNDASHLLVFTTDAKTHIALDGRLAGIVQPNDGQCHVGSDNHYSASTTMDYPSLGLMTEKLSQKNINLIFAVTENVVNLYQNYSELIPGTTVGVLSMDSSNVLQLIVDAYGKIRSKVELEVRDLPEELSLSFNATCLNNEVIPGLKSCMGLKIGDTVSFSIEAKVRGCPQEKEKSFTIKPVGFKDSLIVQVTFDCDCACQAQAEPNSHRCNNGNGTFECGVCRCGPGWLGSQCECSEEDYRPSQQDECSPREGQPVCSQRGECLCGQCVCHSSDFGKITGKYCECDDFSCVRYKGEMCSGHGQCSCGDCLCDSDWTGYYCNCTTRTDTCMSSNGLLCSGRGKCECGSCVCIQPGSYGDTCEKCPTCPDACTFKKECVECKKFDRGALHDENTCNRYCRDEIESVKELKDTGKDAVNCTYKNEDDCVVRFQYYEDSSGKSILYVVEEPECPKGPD

Row | Compound | lower affinity for ITGαvβ3 than for ITGαvβ6 (ITGαvβ3; SPR) | Kd (ITGαvβ3; peptide immobilized, integrin as analyte, 1:1 Langmuir fit) [nM] | histochemical peptide staining result ([1]; breast cancer BM (NCH640k)) | histochemical peptide staining result ([1]; lung BM (NCH2407)) | maximum binding capacity of ^177Lu-DOTA-labeled peptide (kinetics) (HNO399 cells) [%]
1 | CSCC[C@@H]1NC(=O)[C@H](CC(C)C)NC(=O)[C@H](CC(=O)O)NC(=O)CNC(=O)[C@H](CCCNC(=N)N)NC(=O)[C@H](Cc2ccccc2)NC(=O)[C@H]([C@@H](C)O)NC(=O)[C@@H](NC(=O)[C@H](CCCNC(=N)N)NC(=O)CN)CSSC[C@@H](C(=O)N[C@@H](Cc2ccc(O)cc2)C(=O)N2CCC[C@H]2C(=O)N[C@@H](CC(=O)O)C(=O)O)NC(=O)[C@H](CC(C)C)NC(=O)[C@H](CCC(N)=O)NC1=O [SFITGv6, NH2-G-R-C1-T-F-R-G-D-L-M-Q-L-C1-Y-P-D-COOH] (H-GRCTFRGDLMQLCYPD-OH; disulfide 3-13) | ten-fold lower affinity | 185 ± 0.8 | moderate but distinct tumor cell staining | very strong tumor-specific staining pattern | 
2 | CC(C)C[C@@H]1NC(=O)[C@H](CC(=O)O)NC(=O)CNC(=O)[C@H](CCCNC(=N)N)NC(=O)CNC(=O)[C@H]([C@@H](C)O)NC(=O)[C@@H](NC(=O)[C@H](CCCNC(=N)N)NC(=O)CNC(=O)CN2CCN(CC(=O)O)CCN(CC(=O)O)CCN(CC(=O)O)CC2)CSSC[C@@H](C(=O)N[C@@H](Cc2ccc(O)cc2)C(=O)N2CCC[C@H]2C(=O)N[C@@H](CC(=O)O)C(N)=O)NC(=O)[C@H](CC(C)C)NC(=O)[C@H](CCCNC(=N)N)NC(=O)CNC1=O [^177Lu-DOTA-SFLAP3, metal not drawn] ({DOTA}-GRCTGRGDLGRLCYPD-NH2; disulfide 3-13; N-terminus and C-terminus assumed) |  |  |  |  | 4.31
